The source of these data is patent US20100331410A1, “Biaryl Amides” (Asterand UK Limited, priority 2008, published 2010).

As a reminder, the melting point is the temperature of the solid-liquid transition. In the case of `NC(=O)COc1cccc(NC(=O)c2cc(-c3cccc(F)c3)ccc2F)c1` [Compound 3, 3-[(3′-Fluoro-4-fluorobiphenyl-3-carbonyl)amino]phenoxyacetamide], the melting point lay within 203 to 206 °C.

`COC(=O)COc1cccc(NC(=O)c2cc(-c3cccc(F)c3)ccc2F)c1` [Compound 4, 3-[(3′-Fluoro-4-fluorobiphenyl-3-carbonyl)amino]phenoxyacetic acid, methyl ester] showed a melting point of 103 to 104 °C.

Take `COC(=O)/C=C/c1cccc(NC(=O)c2cc(-c3cccc(F)c3)ccc2F)c1` [Compound 6, 3-[(3′-Fluoro-4-fluorobiphenyl-3-carbonyl)amino]cinnamic acid, methyl ester]: the melting point was 144 to 145 °C.

In turn, `O=C(COc1cccc(NC(=O)c2cc(-c3cccc(F)c3)ccc2F)c1)OCCO` [Compound 1, 3-[(3′-Fluoro-4-fluorobiphenyl-3-carbonyl)amino]phenoxyacetic acid, ethylene glycol ester] registered a melting point of 135 to 137 °C.

Regarding `CC(C)OC(=O)/C=C/c1cccc(NC(=O)c2cc(-c3cccc(F)c3)ccc2F)c1` [Compound 5, 3-[(3′-Fluoro-4-fluorobiphenyl-3-carbonyl)amino]cinnamic acid, isopropyl ester], the melting point lay in the range of 154 to 155 °C.

As for `NC(=O)/C=C/c1cccc(NC(=O)c2cc(-c3cccc(F)c3)ccc2F)c1` [Compound 7, 3-[(3′-Fluoro-4-fluorobiphenyl-3-carbonyl)amino]cinnamamide], the melting point lay within 216 to 218 °C.
